Where a name gives a salt, the structure may show the parent alone. Read-outs that look alike come from different tables or passages of the source.
What was measured:
[1] = test system: Phosphorylated Ribosomal Protein S6 (RPS6) in THP-1 cells; experiment: THP-1 RPS6 ELISA assay; format: cell-based, Human; conditions: THP-1 cells, 10 nM MCP-1, phospho-RPS6 ELISA, read-out: PI3Kγ_THP1_RPS6_ELISA IC50
[2] = target: PI3Kδ (p1106/p85a) Recombinant Human Protein (Homo sapiens (Human), UniProt O00329); experiment: PI3Kδ scintillation proximity assay; format: biochemical; conditions: scintillation proximity assay, recombinant human PI3Kδ
Chain of PI3Kδ (p1106/p85a) Recombinant Human Protein (O00329 whole entry): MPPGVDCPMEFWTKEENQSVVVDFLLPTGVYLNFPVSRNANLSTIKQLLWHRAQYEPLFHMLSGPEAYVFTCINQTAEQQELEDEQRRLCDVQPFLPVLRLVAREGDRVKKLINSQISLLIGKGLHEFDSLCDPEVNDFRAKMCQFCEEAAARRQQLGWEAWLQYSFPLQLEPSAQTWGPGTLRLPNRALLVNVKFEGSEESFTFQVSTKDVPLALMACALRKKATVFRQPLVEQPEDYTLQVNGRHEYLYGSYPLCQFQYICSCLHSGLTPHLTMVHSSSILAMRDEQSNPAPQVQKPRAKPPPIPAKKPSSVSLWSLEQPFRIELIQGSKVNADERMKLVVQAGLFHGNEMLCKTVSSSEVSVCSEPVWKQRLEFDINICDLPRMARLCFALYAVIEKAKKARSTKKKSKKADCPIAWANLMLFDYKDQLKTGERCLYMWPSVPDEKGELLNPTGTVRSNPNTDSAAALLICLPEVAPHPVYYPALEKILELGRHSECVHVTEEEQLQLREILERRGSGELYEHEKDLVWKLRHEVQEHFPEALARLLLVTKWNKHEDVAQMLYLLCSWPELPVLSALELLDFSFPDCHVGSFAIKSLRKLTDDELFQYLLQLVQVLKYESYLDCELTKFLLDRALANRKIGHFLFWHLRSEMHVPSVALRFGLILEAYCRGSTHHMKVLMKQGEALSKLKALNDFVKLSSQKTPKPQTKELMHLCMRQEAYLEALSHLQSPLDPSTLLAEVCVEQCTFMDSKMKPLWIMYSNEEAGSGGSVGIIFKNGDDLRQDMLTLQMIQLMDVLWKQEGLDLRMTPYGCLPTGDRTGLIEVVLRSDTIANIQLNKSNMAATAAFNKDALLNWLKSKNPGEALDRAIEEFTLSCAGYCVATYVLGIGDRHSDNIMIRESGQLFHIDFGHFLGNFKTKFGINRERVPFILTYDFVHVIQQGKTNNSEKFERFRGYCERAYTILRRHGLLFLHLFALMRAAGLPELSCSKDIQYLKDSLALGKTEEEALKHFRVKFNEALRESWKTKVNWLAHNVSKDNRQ
Chain of PI3Kδ (p1106/p85a) Recombinant Human Protein (P27986 whole entry partner): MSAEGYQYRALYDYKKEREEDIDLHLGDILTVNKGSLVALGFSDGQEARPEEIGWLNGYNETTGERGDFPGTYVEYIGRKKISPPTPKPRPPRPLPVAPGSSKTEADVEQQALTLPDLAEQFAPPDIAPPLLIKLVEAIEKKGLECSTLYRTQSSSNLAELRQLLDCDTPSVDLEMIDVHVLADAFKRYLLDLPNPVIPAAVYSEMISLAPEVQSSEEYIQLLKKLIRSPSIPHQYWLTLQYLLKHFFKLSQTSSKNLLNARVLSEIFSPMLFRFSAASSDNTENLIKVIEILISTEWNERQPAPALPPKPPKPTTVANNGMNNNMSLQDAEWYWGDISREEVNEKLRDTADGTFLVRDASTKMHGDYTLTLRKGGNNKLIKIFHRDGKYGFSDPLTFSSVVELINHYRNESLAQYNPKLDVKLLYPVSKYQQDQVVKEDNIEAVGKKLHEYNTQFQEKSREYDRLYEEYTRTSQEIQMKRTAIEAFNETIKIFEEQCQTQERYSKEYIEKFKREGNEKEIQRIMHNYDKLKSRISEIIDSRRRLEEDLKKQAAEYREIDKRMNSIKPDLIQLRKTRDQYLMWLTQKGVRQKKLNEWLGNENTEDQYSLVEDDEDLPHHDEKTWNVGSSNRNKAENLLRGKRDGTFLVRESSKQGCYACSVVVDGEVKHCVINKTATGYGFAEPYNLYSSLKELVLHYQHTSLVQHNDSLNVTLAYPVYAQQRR

[3] = target: PI3Kγ (p110γ) Recombinant Human Protein (Homo sapiens (Human), UniProt P48736); experiment: PI3K-γ scintillation proximity assay; format: biochemical; conditions: scintillation proximity assay, recombinant human p110γ
Chain of PI3Kγ (p110γ) Recombinant Human Protein (P48736 whole entry): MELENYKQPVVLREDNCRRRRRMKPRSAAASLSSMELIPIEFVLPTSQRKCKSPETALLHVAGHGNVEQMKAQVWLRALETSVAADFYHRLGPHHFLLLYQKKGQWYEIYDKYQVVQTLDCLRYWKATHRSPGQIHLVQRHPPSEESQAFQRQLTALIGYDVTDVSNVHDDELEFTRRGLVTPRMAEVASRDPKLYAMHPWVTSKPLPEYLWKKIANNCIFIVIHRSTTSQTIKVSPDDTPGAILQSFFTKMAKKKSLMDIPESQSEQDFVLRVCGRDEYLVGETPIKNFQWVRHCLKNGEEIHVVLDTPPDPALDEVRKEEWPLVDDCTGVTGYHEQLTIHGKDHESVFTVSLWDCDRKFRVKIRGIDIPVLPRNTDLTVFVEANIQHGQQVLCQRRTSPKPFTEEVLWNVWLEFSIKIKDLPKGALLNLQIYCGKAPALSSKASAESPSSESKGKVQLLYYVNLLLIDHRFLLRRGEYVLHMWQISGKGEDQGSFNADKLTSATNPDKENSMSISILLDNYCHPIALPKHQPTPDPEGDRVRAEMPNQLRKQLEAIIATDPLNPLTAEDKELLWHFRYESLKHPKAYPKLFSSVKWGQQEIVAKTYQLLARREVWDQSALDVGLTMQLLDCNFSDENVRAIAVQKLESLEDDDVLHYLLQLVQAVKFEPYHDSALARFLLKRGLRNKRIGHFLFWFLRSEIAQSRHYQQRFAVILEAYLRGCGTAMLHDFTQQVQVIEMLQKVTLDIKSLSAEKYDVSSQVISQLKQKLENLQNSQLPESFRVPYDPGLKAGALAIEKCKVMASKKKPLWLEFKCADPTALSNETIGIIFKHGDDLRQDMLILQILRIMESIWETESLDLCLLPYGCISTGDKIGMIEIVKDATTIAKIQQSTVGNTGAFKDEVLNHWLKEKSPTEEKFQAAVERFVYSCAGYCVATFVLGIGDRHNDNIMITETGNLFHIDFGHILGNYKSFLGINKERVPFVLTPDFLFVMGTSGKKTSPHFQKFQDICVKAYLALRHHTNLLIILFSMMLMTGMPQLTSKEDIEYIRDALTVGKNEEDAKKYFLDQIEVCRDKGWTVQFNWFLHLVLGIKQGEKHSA

Row | Compound | IC50 ([1]; Homo sapiens, Table A3) [nM] | IC50 ([2]; Table A3) [nM] | IC50 ([3]; Table A3) [nM] | further results
1 | Cc1ccc(C(O)(C(N)=O)C(F)(F)F)cc1-c1cnc(N)c(C(=O)N[C@H]2CC[C@](C)(O)CC2)n1 (stereo partly drawn) [Example 17, 3-amino-6-(5-(3-amino-1,1,1-trifluoro-2-hydroxy-3-oxopropan-2-yl)-2-methylphenyl)-N-((1r,4r)-4-hydroxy-4-methylcyclohexyl)pyrazine-2-carboxamide trifluoroacetate] | – | – | – | IC50 ([1]; Table A1): < 100 nM; IC50 ([2]; Table A1): < 100 nM; IC50 ([3]; Table A1): < 100 nM
2 | Cc1ccc(C(O)(C(N)=O)C(F)(F)F)cc1-c1cnc(N)c(-c2cncnc2)n1 (stereo not drawn) [Example 81, 2-(3-(5-amino-6-(pyrimidin-5-yl)pyrazin-2-yl)-4-methylphenyl)-3,3,3-trifluoro-2-hydroxypropanamide trifluoroacetate] | 100 to 500 | 100 to 500 | < 100 | –
3 | Cc1ccc(C(O)(C(N)=O)C(F)(F)F)cc1-c1cnc(N)c(-c2cnn(C(C)(C)C#N)c2)n1 (stereo not drawn) [Example 76, 2-(3-(5-amino-6-(1-(2-cyanopropan-2-yl)-1H-pyrazol-4-yl)pyrazin-2-yl)-4-methylphenyl)-3,3,3-trifluoro-2-hydroxypropanamide trifluoroacetate] | < 100 | < 100 | < 100 | –
4 | Cc1ncc(-c2nc(-c3cc(C(O)(C(N)=O)C(F)(F)F)ccc3C)cnc2N)o1 (stereo not drawn) [Example 70, 2-(3-(5-amino-6-(2-methyloxazol-5-yl)pyrazin-2-yl)-4-methylphenyl)-3,3,3-trifluoro-2-hydroxypropanamide trifluoroacetate] | < 100 | < 100 | < 100 | –
5 | Cc1ccc(C(O)(C(N)=O)C(F)(F)F)cc1-c1cnc(N)c(C#CC(C)C)n1 (stereo not drawn) [Example 49, 2-(3-(5-amino-6-(3-methylbut-1-ynyl)pyrazin-2-yl)-4-methylphenyl)-3,3,3-trifluoro-2-hydroxypropanamide] | – | – | – | IC50 ([1]; Homo sapiens, Table A2): 100 to 500 nM; IC50 ([2]; Table A2): < 100 nM; IC50 ([3]; Table A2): < 100 nM
6 | Cc1ccc(C(O)(C(N)=O)C(F)(F)F)cc1-c1cnc(N)c(N2CCN(c3ccc(C#N)cc3)CC2)n1 (stereo not drawn) [Example 123, 2-(3-(5-amino-6-(4-(4-cyanophenyl)piperazin-1-yl)pyrazin-2-yl)-4-methylphenyl)-3,3,3-trifluoro-2-hydroxypropanamide trifluoroacetate] | – | – | – | IC50 ([1]; Homo sapiens, Table A4): 100 to 500 nM; IC50 ([2]; Table A4): < 100 nM; IC50 ([3]; Table A4): < 100 nM
